Measured values taken from patent US20250353891A1 (MEDIMMUNE LIMITED, priority 2022, published 2025).
Starred links: 1 amine or outer side, 2 acyl side, 3 side chain; linkers in the order of their positions; H or OH if unused. Non-standard residues stand in square brackets, D forms with d. Residues, ends and D or L forms follow the SMILES beside them. Groups on a side chain read outwards from the residue. *: point of attachment. C18 diacid = O=C(O)CCCCCCCCCCCCCCCCC(=O)*; γGlu = O=C(O)[C@H](CCC(=O)[*:2])N[*:1]; Stearoyl = CCCCCCCCCCCCCCCCCC(=O)*; Palmitoyl = CCCCCCCCCCCCCCCC(=O)*; αMeF = C[C@](N)(Cc1ccccc1)C(=O)O; PEG2 = NCCOCCOCCC(=O)O; AEEA = NCCOCCOCC(=O)O; Aib = CC(C)(N)C(=O)O

Legend:
[1] = biological target: human GLP-1 receptor (hGLP-1R) (Homo sapiens, UniProt P43220); assay: cAMP production (HTRF) in CHO cells expressing hGLP-1R; type: cell-based; parameters: expressed in transfected cells; settings: for EC50: Table 6, peptides modified at position 17, cAMP in CHO hGLP-1R cells, geometric mean, read-out: hGLP-1R EC50; for % Relative Potency Ratio: Table 6, % GLP-1R activity relative to GLP-1 / % GlucR activity relative to glucagon
human GLP-1 receptor (hGLP-1R), sequence (P43220 24-463): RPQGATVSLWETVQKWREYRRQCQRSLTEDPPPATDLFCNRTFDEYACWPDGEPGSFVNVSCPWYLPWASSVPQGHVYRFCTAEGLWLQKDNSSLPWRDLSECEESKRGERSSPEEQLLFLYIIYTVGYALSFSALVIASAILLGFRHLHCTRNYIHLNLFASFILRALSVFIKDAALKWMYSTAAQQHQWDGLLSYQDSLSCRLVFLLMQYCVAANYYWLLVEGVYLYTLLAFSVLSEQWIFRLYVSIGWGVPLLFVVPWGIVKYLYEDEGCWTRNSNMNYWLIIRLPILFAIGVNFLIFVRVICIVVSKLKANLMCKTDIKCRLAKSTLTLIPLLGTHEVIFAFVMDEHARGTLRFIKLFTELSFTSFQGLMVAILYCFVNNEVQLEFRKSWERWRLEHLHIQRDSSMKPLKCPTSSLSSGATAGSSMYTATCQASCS
Summary of the method: (§1)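 Potency values represent EC50 from 4-parameter logistic curves of HTRF % Delta F signal. Receptor-expressing CHO cells (hGCGR 2×10^5 cells/mL, hGLP-1R 1×10^5 cells/mL) were exposed for 30 min at room temperature before two-step cAMP detection.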

[2] = biological target: human glucagon receptor (hGCGR) (Homo sapiens, UniProt P47871); assay: cAMP production (HTRF) in CHO cells expressing hGCGR; type: cell-based; parameters: expressed in transfected cells; settings: Table 6, peptides modified at position 17; cAMP in CHO hGCGR cells; geometric mean; read-out: hGluc-R EC50
human glucagon receptor (hGCGR), sequence (P47871 26-477): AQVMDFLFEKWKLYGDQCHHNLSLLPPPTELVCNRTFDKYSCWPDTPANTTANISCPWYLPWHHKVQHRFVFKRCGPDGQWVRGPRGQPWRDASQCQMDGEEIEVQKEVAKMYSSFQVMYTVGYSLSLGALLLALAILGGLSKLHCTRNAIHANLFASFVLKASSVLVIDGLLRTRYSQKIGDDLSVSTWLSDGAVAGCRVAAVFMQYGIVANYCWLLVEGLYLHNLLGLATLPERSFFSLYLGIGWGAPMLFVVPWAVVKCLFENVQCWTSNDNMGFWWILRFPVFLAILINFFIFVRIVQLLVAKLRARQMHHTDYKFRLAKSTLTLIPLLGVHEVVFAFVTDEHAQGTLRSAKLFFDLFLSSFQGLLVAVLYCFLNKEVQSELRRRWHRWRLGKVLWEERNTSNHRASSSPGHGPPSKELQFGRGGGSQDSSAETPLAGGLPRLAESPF
Summary of the method: as §1

EC50 [1] [pM]	% Relative Potency Ratio [1]	EC50 [2] [pM]	SMILES
65.9	3.0	99.1	CCCCCCCCCCCCCCCC(=O)N[C@@H](CCC(=O)N[C@@H](CCC(=O)NCCOCCOCCC(=O)NCCOCCOCCC(=O)NCCCC[C@H](NC(=O)[C@H](CO)NC(=O)[C@H](CC(=O)O)NC(=O)[C@H](CC(C)C)NC(=O)C(C)(C)NC(=O)[C@H](CCCCN)NC(=O)[C@H](CO)NC(=O)[C@@H](NC(=O)[C@H](CC(=O)O)NC(=O)[C@H](CO)NC(=O)[C@@H](NC(=O)[C@](C)(Cc1ccccc1)NC(=O)[C@H](CO)NC(=O)CNC(=O)[C@H](CCC(N)=O)NC(=O)[C@H](CO)NC(=O)[C@@H](N)Cc1c[nH]cn1)[C@@H](C)O)C(C)C)C(=O)N[C@@H](CCC(N)=O)C(=O)N[C@@H](C)C(=O)N[C@@H](CCC(N)=O)C(=O)N[C@@H](CC(=O)O)C(=O)N[C@@](C)(Cc1ccccc1)C(=O)N[C@H](C(=O)N[C@@H](CCC(N)=O)C(=O)N[C@@H](Cc1c[nH]cn1)C(=O)N[C@H](C(=O)N[C@@H](C)C(=O)N[C@@H](CC(N)=O)C(N)=O)[C@@H](C)CC)C(C)C)C(=O)O)C(=O)O [Peptide 107] (H-HSQGS[αMeF]TSDVSK[Aib]LDSK([PEG2-PEG2-γGlu-γGlu-Palmitoyl])QAQD[αMeF]VQHIAN-NH2; N-terminus assumed)
3200		> 27100	CC[C@H](C)[C@H](NC(=O)C(C)(C)NC(=O)[C@H](CCC(N)=O)NC(=O)[C@@H](NC(=O)[C@](C)(Cc1ccccc1)NC(=O)[C@H](CC(=O)O)NC(=O)[C@H](CCC(N)=O)NC(=O)[C@H](C)NC(=O)[C@H](C)NC(=O)[C@H](CCCCNC(=O)COCCOCCNC(=O)COCCOCCNC(=O)CC[C@H](NC(=O)CCCCCCCCCCCCCCCCC(=O)O)C(=O)O)NC(=O)[C@H](CO)NC(=O)[C@H](CC(=O)O)NC(=O)[C@H](CC(C)C)NC(=O)C(C)(C)NC(=O)[C@H](CCCCN)NC(=O)[C@H](CO)NC(=O)[C@@H](NC(=O)[C@H](CC(=O)O)NC(=O)[C@H](CO)NC(=O)[C@@H](NC(=O)[C@](C)(Cc1ccccc1)NC(=O)[C@H](CO)NC(=O)CNC(=O)[C@H](CCC(N)=O)NC(=O)[C@H](CO)NC(=O)[C@@H](N)Cc1c[nH]cn1)[C@@H](C)O)C(C)C)C(C)C)C(=O)N[C@@H](C)C(=O)N[C@@H](CC(N)=O)C(N)=O [Peptide 108] (H-HSQGS[αMeF]TSDVSK[Aib]LDSK([AEEA-AEEA-γGlu-C18 diacid])AAQD[αMeF]VQ[Aib]IAN-NH2; N-terminus assumed)
698		> 26800	CC[C@H](C)[C@H](NC(=O)C(C)(C)NC(=O)[C@H](CCC(N)=O)NC(=O)[C@@H](NC(=O)[C@](C)(Cc1ccccc1)NC(=O)[C@H](CC(=O)O)NC(=O)[C@H](CCC(N)=O)NC(=O)[C@H](C)NC(=O)[C@H](C)NC(=O)[C@H](CCCCNC(=O)COCCOCCNC(=O)COCCOCCNC(=O)CC[C@H](NC(=O)CCCCCCCCCCCCCCCCC(=O)O)C(=O)O)NC(=O)[C@H](CO)NC(=O)[C@H](CC(=O)O)NC(=O)[C@H](CC(C)C)NC(=O)C(C)(C)NC(=O)[C@H](CCCCNC(C)=O)NC(=O)[C@H](CO)NC(=O)[C@@H](NC(=O)[C@H](CC(=O)O)NC(=O)[C@H](CO)NC(=O)[C@@H](NC(=O)[C@](C)(Cc1ccccc1)NC(=O)[C@H](CO)NC(=O)CNC(=O)[C@H](CCC(N)=O)NC(=O)[C@H](CO)NC(=O)[C@@H](N)Cc1c[nH]cn1)[C@@H](C)O)C(C)C)C(C)C)C(=O)N[C@@H](C)C(=O)N[C@@H](CC(N)=O)C(N)=O [Peptide 109] (H-HSQGS[αMeF]TSDVSK(Ac)[Aib]LDSK([AEEA-AEEA-γGlu-C18 diacid])AAQD[αMeF]VQ[Aib]IAN-NH2; N-terminus assumed)
	152.9	48.5	CCCCCCCCCCCCCCCCCC(=O)N[C@@H](CCC(=O)N[C@@H](CCC(=O)NCCOCCOCCC(=O)NCCOCCOCCC(=O)NCCCC[C@H](NC(=O)[C@H](CO)NC(=O)[C@H](CC(=O)O)NC(=O)[C@H](CC(C)C)NC(=O)C(C)(C)NC(=O)[C@H](CCCCNC(C)=O)NC(=O)[C@H](CO)NC(=O)[C@@H](NC(=O)[C@H](CC(=O)O)NC(=O)[C@H](CO)NC(=O)[C@@H](NC(=O)[C@](C)(Cc1ccccc1)NC(=O)[C@H](CO)NC(=O)CNC(=O)[C@H](CCC(N)=O)NC(=O)[C@H](CO)NC(=O)[C@@H](N)Cc1c[nH]cn1)[C@@H](C)O)C(C)C)C(=O)N[C@@H](C)C(=O)N[C@@H](C)C(=O)N[C@@H](CCC(N)=O)C(=O)N[C@@H](CC(=O)O)C(=O)N[C@@](C)(Cc1ccccc1)C(=O)N[C@H](C(=O)N[C@@H](CCC(N)=O)C(=O)NC(C)(C)C(=O)N[C@H](C(=O)N[C@@H](C)C(=O)N[C@@H](CC(N)=O)C(N)=O)[C@@H](C)CC)C(C)C)C(=O)O)C(=O)O [Peptide 110] (H-HSQGS[αMeF]TSDVSK(Ac)[Aib]LDSK([PEG2-PEG2-γGlu-γGlu-Stearoyl])AAQD[αMeF]VQ[Aib]IAN-NH2; N-terminus assumed)
1.92	2.2	2.09	CCCCCCCCCCCCCCCC(=O)N[C@@H](CCC(=O)N[C@@H](CCC(=O)NCCOCCOCCC(=O)NCCOCCOCCC(=O)NCCCC[C@H](NC(=O)[C@H](CO)NC(=O)[C@H](CC(=O)O)NC(=O)[C@H](CC(C)C)NC(=O)[C@@H](NC(=O)[C@H](CCCCN)NC(=O)[C@H](CO)NC(=O)[C@@H](NC(=O)[C@H](CC(=O)O)NC(=O)[C@H](CO)NC(=O)[C@@H](NC(=O)[C@](C)(Cc1ccccc1)NC(=O)[C@H](CO)NC(=O)CNC(=O)[C@H](CCC(N)=O)NC(=O)[C@H](CO)NC(=O)[C@@H](N)Cc1c[nH]cn1)[C@@H](C)O)C(C)C)[C@@H](C)CC)C(=O)N[C@@H](C)C(=O)N[C@@H](C)C(=O)N[C@@H](CCC(N)=O)C(=O)N[C@@H](CC(=O)O)C(=O)N[C@@](C)(Cc1ccccc1)C(=O)N[C@H](C(=O)N[C@@H](CCC(N)=O)C(=O)NC(C)(C)C(=O)N[C@H](C(=O)N[C@@H](C)C(=O)N[C@@H](CC(N)=O)C(N)=O)[C@@H](C)CC)C(C)C)C(=O)O)C(=O)O [Peptide 111] (H-HSQGS[αMeF]TSDVSKILDSK([PEG2-PEG2-γGlu-γGlu-Palmitoyl])AAQD[αMeF]VQ[Aib]IAN-NH2)
3.36	1.6	2.69	CCCCCCCCCCCCCCCC(=O)N[C@@H](CCC(=O)N[C@@H](CCC(=O)NCCOCCOCCC(=O)NCCOCCOCCC(=O)NCCCC[C@H](NC(=O)[C@H](CO)NC(=O)[C@H](CC(=O)O)NC(=O)[C@H](CC(C)C)NC(=O)[C@@H](NC(=O)[C@H](CCCCN)NC(=O)[C@H](CO)NC(=O)[C@@H](NC(=O)[C@H](CC(=O)O)NC(=O)[C@H](CO)NC(=O)[C@@H](NC(=O)[C@](C)(Cc1ccccc1)NC(=O)[C@H](CO)NC(=O)CNC(=O)[C@H](CCC(N)=O)NC(=O)[C@H](CO)NC(=O)[C@@H](N)Cc1c[nH]cn1)[C@@H](C)O)C(C)C)[C@@H](C)CC)C(=O)N[C@@H](C)C(=O)N[C@@H](C)C(=O)N[C@@H](CCC(N)=O)C(=O)N[C@@H](CC(=O)O)C(=O)N[C@@](C)(Cc1ccccc1)C(=O)N[C@H](C(=O)N[C@@H](CCC(N)=O)C(=O)N[C@H](C(=O)N[C@H](C(=O)N[C@@H](C)C(=O)N[C@@H](CC(N)=O)C(N)=O)[C@@H](C)CC)[C@@H](C)CC)C(C)C)C(=O)O)C(=O)O [Peptide 112] (H-HSQGS[αMeF]TSDVSKILDSK([PEG2-PEG2-γGlu-γGlu-Palmitoyl])AAQD[αMeF]VQIIAN-NH2)
1.61	5.6	4.6	CCCCCCCCCCCCCCCC(=O)N[C@@H](CCC(=O)N[C@@H](CCC(=O)NCCOCCOCCC(=O)NCCOCCOCCC(=O)NCCCC[C@H](NC(=O)[C@H](CO)NC(=O)[C@H](CC(=O)O)NC(=O)[C@H](CC(C)C)NC(=O)[C@@H](NC(=O)[C@H](CCCCN)NC(=O)[C@H](CO)NC(=O)[C@@H](NC(=O)[C@H](CC(=O)O)NC(=O)[C@H](CO)NC(=O)[C@@H](NC(=O)[C@](C)(Cc1ccccc1)NC(=O)[C@H](CO)NC(=O)CNC(=O)[C@H](CCC(N)=O)NC(=O)[C@H](CO)NC(=O)[C@@H](N)Cc1c[nH]cn1)[C@@H](C)O)C(C)C)[C@@H](C)CC)C(=O)N[C@@H](C)C(=O)N[C@@H](C)C(=O)N[C@@H](CCC(N)=O)C(=O)N[C@@H](CC(=O)O)C(=O)N[C@@](C)(Cc1ccccc1)C(=O)N[C@H](C(=O)N[C@@H](CCC(N)=O)C(=O)N[C@H](C(=O)N[C@H](C(=O)N[C@@H](C)C(=O)NCC(N)=O)[C@@H](C)CC)[C@@H](C)CC)C(C)C)C(=O)O)C(=O)O [Peptide 113] (H-HSQGS[αMeF]TSDVSKILDSK([PEG2-PEG2-γGlu-γGlu-Palmitoyl])AAQD[αMeF]VQIIAG-NH2; N-terminus assumed)
3.65	1.4	2.65	CCCCCCCCCCCCCCCC(=O)N[C@@H](CCC(=O)N[C@@H](CCC(=O)NCCOCCOCCC(=O)NCCOCCOCCC(=O)NCCCC[C@H](NC(=O)[C@H](CO)NC(=O)[C@H](CC(=O)O)NC(=O)[C@H](CC(C)C)NC(=O)[C@@H](NC(=O)[C@H](CCCCN)NC(=O)[C@H](CO)NC(=O)[C@@H](NC(=O)[C@H](CC(=O)O)NC(=O)[C@H](CO)NC(=O)[C@@H](NC(=O)[C@](C)(Cc1ccccc1)NC(=O)[C@H](CO)NC(=O)CNC(=O)[C@H](CCC(N)=O)NC(=O)[C@H](CO)NC(=O)[C@@H](N)Cc1c[nH]cn1)[C@@H](C)O)C(C)C)[C@@H](C)CC)C(=O)N[C@@H](C)C(=O)N[C@@H](C)C(=O)N[C@@H](CCC(N)=O)C(=O)N[C@@H](CC(=O)O)C(=O)N[C@@](C)(Cc1ccccc1)C(=O)N[C@H](C(=O)N[C@@H](CCC(=O)O)C(=O)N[C@H](C(=O)N[C@H](C(=O)N[C@@H](C)C(=O)N[C@@H](CC(N)=O)C(N)=O)[C@@H](C)CC)[C@@H](C)CC)C(C)C)C(=O)O)C(=O)O [Peptide 114] (H-HSQGS[αMeF]TSDVSKILDSK([PEG2-PEG2-γGlu-γGlu-Palmitoyl])AAQD[αMeF]VEIIAN-NH2; N-terminus assumed)
